Molecular target: T1, DCAF1 WD40 domain (residues 1077-1390) (Homo sapiens, UniProt Q9Y4B6)
T1 construct: DCAF1 WD40 domain (residues 1077-1390)
Assay: DCAF1 binding assay by SPR (Biacore 8K+), DCAF1-3 KD
Conditions: 25 °C, read-out: DCAF1-3 SPR (KD)

T1 sequence (Q9Y4B6 1077-1390): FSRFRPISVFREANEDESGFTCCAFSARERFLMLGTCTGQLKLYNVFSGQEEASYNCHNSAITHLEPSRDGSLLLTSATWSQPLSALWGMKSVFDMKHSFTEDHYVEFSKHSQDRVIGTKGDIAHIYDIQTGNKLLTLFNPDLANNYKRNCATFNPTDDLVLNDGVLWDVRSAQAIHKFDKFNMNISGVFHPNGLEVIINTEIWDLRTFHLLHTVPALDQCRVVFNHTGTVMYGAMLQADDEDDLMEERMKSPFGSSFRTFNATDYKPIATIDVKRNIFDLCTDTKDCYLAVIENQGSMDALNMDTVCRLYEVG

Row | SMILES | Kd
1 | N#Cc1nccc(N2CCC[C@@H](Nc3cc(N4CCOCC4)ccn3)C2)n1 [I-414] | > 200 µM
2 | COC(=O)c1cc(-c2cccc(N3CCC[C@@H](Nc4cc(N5CCOCC5)ccn4)C3)c2)on1 [I-785] | > 200 µM
3 | NC(=O)C[C@H](NC(=O)c1n[nH]c2c1CNCC2)c1cccc(Cl)c1 [I-298] | > 200 µM
4 | C=CC(=O)NCCC1CCN(c2ccnc(N3CC[C@@H]4[C@H]3CCCN4c3cccc(F)c3)c2)CC1 [I-666] | > 200 µM
5 | NC(=O)C[C@H](NC(=O)c1c[nH]nc1-c1ccc[nH]c1=O)c1cccc(Cl)c1 [I-156] | > 200 µM
6 | Fc1cccc([C@H]2CCC[C@@H](Nc3cc(N4CCOCC4)ncn3)C2)c1 [I-182] | > 200 µM
7 | CCCN1CCN(c2ccnc(NC3CCCN(c4cccc(F)c4)C3)n2)CC1 (centres unmarked) [I-25] | > 200 µM
8 | O=C(CC1CN(C(=O)N2CCC=C(F)C2)CCO1)Nc1ccccn1 (centres unmarked) [I-86] | > 200 µM
9 | O=S1(=O)[C@H](Nc2cc(N3CCOCC3)ccn2)CCCN1c1cccc(F)c1 [I-282] | > 200 µM
10 | Fc1cccc(N2CCC[C@@H](n3cnc4c(N5CCOCC5)ncnc43)C2)c1 [I-51] | > 200 µM
11 | c1cc(N2CCCCC2)cc(N[C@@H]2CCC[C@H](C3CCCCC3)C2)n1 [I-751] | > 200 µM
12 | Cc1n[nH]c(C(F)(F)F)c1C(=O)N[C@@H](CC(N)=O)c1ccccc1 [I-837] | > 200 µM
13 | CN1CC=CC[C@@H]1CC(=O)N[C@@H](CC(N)=O)c1cccc(Cl)c1 [I-442] | > 200 µM
14 | Cc1cc(N2CCC[C@@H](Nc3cc(N4CCOCC4)ccn3)C2)cnc1OC(C)C [I-428] | > 200 µM
15 | c1cc(N2CCOCC2)cc(N[C@@H]2CCCN(c3ccc4c(c3)CCC4)C2)n1 [I-872] | > 200 µM
16 | NCCCCCCCCCCCCCCCCCCCCC(=O)c1[nH]cc(C(=O)N[C@@H](CC(N)=O)c2cccc(Cl)c2)c1-c1ccccc1F [I-670] | > 200 µM
17 | O=C1NCCc2c1cccc2N1CCC[C@@H](Nc2cc(N3CCOCC3)ccn2)C1 [I-778] | > 200 µM
18 | Fc1cccc(N2CCC[C@@H](Nc3cc(N4C[C@@H]5C[C@H]4CO5)ncn3)C2)c1 [I-312] | > 200 µM
19 | Cc1sc2c(c1C)C(c1ccc(Cl)cc1)=N[C@@H](CC(=O)NCCOCCOCCOCCOCCn1ncc(C(=O)N[C@@H](CC(N)=O)c3cccc(Cl)c3)c1-c1ccccc1F)c1nnc(C)n1-2 [I-491] | > 200 µM
20 | Cc1[nH]nc(C(=O)N[C@@H](CC(N)=O)c2cccc(Cl)c2)c1-c1ccccc1F [I-230] | > 200 µM

Row | SMILES | Kd
21 | Fc1cccc(N2CCC[C@@H](Nc3cc(C4CCNCC4)ccn3)C2)c1 [I-93] | > 200 µM
22 | O=C(O)c1cc2c(N3CCC[C@@H](Nc4cc(N5CCOCC5)ccn4)C3)cccc2s1 [I-855] | > 200 µM
23 | Cc1nn(CC(F)(F)F)cc1N1CCC[C@@H](Nc2cc(N3CCOCC3)ccn2)C1 [I-422] | > 200 µM
24 | NC(=O)C[C@H](NC(=O)c1cn[nH]c1[C@@H]1CCCCO1)c1cccc(Cl)c1 [I-347] | > 200 µM
25 | C[S@@+]([O-])c1ccc(N2CCC[C@@H](Nc3cc(N4CCOCC4)ccn3)C2)cc1 [I-864] | > 200 µM
26 | COc1ccc(F)c(-c2[nH]ncc2C(=O)N[C@@H](CC(N)=O)c2cccc(Cl)c2)c1 [I-249] | > 200 µM
27 | NC(=O)C[C@@]1(NC(=O)c2c[nH]nc2-c2ccccc2F)CCCc2ccc(Cl)cc21 [I-243] | > 200 µM
28 | OCc1cnc(N2CCOCC2)cc1N[C@@H]1CCCN(c2cccc(F)c2)C1 [I-410] | > 200 µM
29 | Fc1cccc(N2CCC[C@H](Cc3cc(N4CCOCC4)[nH]n3)C2)c1 [I-632] | > 200 µM
30 | c1ccc(-c2nc3cccc(N4CCC[C@@H](Nc5cc(N6CCOCC6)ccn5)C4)c3o2)cc1 [I-685] | > 200 µM
31 | FC[C@@]1(Nc2cc(N3CCOCC3)ccn2)CCCN(c2cccc(F)c2)C1 [I-277] | > 200 µM
32 | Fc1cccc(N2CCCC(N(c3cc(N4CCOCC4)ccn3)C(F)(F)F)C2)c1 (centres unmarked) [I-305] | > 200 µM
33 | Fc1cccc(N2C3CC[C@H]2CC[C@H]3Nc2cc(N3CCOCC3)ccn2)c1 (stereo in doubt) [I-80] | > 200 µM
34 | Fc1cccc(N2CCC[C@@H](Nc3cc(C4CCOCC4)[nH]n3)C2)c1 [I-608] | > 200 µM
35 | NCCCCCCCCCCCCCCCCCC1CCN(c2ccnc(N3CC[C@@H]4[C@H]3CCCN4c3cccc(F)c3)c2)CC1 [I-719] | > 200 µM
36 | NCCc1ccc(N2CCC[C@@H](Nc3cc(N4CCOCC4)ccn3)C2)cc1 [I-871] | > 200 µM
37 | C=CC(=O)N1CCC[C@H](c2n[nH]cc2C(=O)N[C@@H](CC(N)=O)c2cccc(Cl)c2)C1 [I-483] | > 200 µM
38 | c1cnc2ccc(N3CCC[C@@H](Nc4cc(N5CCOCC5)ncn4)C3)cc2c1 [I-400] | > 200 µM
39 | CN1CCN(c2ccnc(N[C@@H]3CCCN(c4cccc(F)c4)C3)n2)CC1 [I-315] | > 200 µM

Other lines, results leading:

Row | Kd | SMILES
40 | < 10 µM | Cc1sc2c(c1C)C(c1ccc(Cl)cc1)=N[C@@H](CC(=O)NCCOCCOCCOCCOCCCc1ccc(C(=O)c3[nH]cc(C(=O)N[C@@H](CC(=O)N4CCN(C(=O)OCc5ccccc5)CC4)c4cccc(Cl)c4)c3-c3c(F)ccc(F)c3C)cc1)c1cnc(C)n1-2 [I-914]
41 | > 200 µM | COCCc1[nH]nc(C(=O)N[C@@H](CC(N)=O)c2cccc(Cl)c2)c1-c1ccccc1F [I-330]
42 | > 200 µM | C[C@@H](C(N)=O)[C@H](NC(=O)c1c[nH]nc1-c1ccccc1F)c1cccc(Cl)c1 [I-211]
43 | 10 to 100 µM | COc1ccc(-c2ccncc2)cc1N1CCC[C@@H](Nc2cc(N3CCOCC3)ccn2)C1 [I-698]
44 | < 10 µM | Cc1c(F)ccc(F)c1-c1c(C(=O)N[C@@H](CC(N)=O)c2cccc(Cl)c2)c[nH]c1C(=O)COCCOCCOCCOCCOCCOCCN [I-802]
45 | > 200 µM | NC(=O)C[C@H](C(=O)Nc1cnn(Cc2ccccc2)c1-c1ccccc1F)c1cccc(Cl)c1 [I-153]
46 | > 200 µM | Clc1cc(N2CCC[C@@H](Nc3cc(N4CCOCC4)ccn3)C2)nc(C2CC2)n1 [I-679]
47 | 10 to 100 µM | COCCN(C)CC1CCN(c2ccnc(N3CC[C@@H]4[C@H]3CCCN4c3cccc(F)c3)c2)CC1 [I-922]
48 | 10 to 100 µM | OC[C@H]1CC[C@H](Nc2cc(N3CCCCC3)ccn2)CN1c1cccc(F)c1 [I-994]
49 | 10 to 100 µM | c1cc(N2CCCCC2)cc(N[C@@H]2CCC[C@@H](C3CCCCC3)C2)n1 [I-752]
50 | 100 to 200 µM | c1cc2c(N3CCC[C@@H](Nc4cc(N5CCOCC5)ccn4)C3)nccc2cn1 [I-66]
51 | < 10 µM | Fc1cccc(N2CCC[C@@H](Nc3cc(N4CCCCCC4)ccn3)C2)c1 [I-597]
52 | 10 to 100 µM | NC(=O)C[C@H](NC(=O)c1ccc(N)nc1-c1ccccc1F)c1cccc(Cl)c1 [I-588]
53 | 10 to 100 µM | NC(=O)C[C@H](NC(=O)c1c[nH]nc1-c1ccccc1O)c1cccc(Cl)c1 [I-334]
54 | 10 to 100 µM | NC(=O)CCc1ccc(N2CCC[C@@H](Nc3cc(N4CCOCC4)ccn3)C2)cc1 [I-869]
55 | 10 to 100 µM | NC(=O)C[C@H](NC(=O)c1[nH]nc(Nc2ccccc2)c1-c1ccccc1F)c1cccc(Cl)c1 [I-169]
56 | < 10 µM | CNC(=O)C[C@H](NC(=O)c1c[nH]c(C(=O)COCCOCCOCCOCCOCCN)c1-c1c(F)ccc(F)c1C)c1cccc(Cl)c1 [I-820]
57 | 10 to 100 µM | CCCCCCC[C@@H]1CCCN(c2ccnc(N3CC[C@H]4[C@@H]3CCCN4c3cccc(F)c3)c2)C1 [I-728]
58 | < 10 µM | COCCOCC[C@@H]1CN(c2cc(N3CCCCC3)ccn2)[C@H]2CCCN(c3cccc(F)c3)[C@@H]12 [I-934]
59 | 10 to 100 µM | c1ccc([C@@H]2CCC[C@H](Nc3cc(N4CCCCC4)ccn3)C2)cc1 [I-753]
60 | 100 to 200 µM | c1cnc2ccnc(N3CCC[C@@H](Nc4cc(N5CCOCC5)ccn4)C3)c2c1 [I-63]

Row | Kd | SMILES
61 | 10 to 100 µM | C=CC(=O)N(CCCCN1CCN(c2ccnc(N[C@@H]3CCCN(c4cccc(F)c4)C3)c2)CC1)CCOCCOCCNC(=O)C[C@@H]1N=C(c2ccc(Cl)cc2)c2c(sc(C)c2C)-n2c(C)nnc21 [I-904]
62 | 10 to 100 µM | C[C@H]1CCCN(c2ccnc(N[C@@H]3CCCN(c4cccc(F)c4)C3)c2)C1 [I-570]
63 | < 10 µM | CN1CCN(CCC2CCN(c3ccnc(N4CC[C@@H]5[C@H]4CCCN5c4cccc(F)c4)c3)CC2)CC1 [I-816]
64 | 10 to 100 µM | c1ccc2c(N3CCC[C@@H](Nc4nccc(N5CCOCC5)n4)C3)nccc2c1 [I-36]
65 | < 10 µM | O=C1COc2cc(N3CCC[C@@H](Nc4cc(N5CCOCC5)ccn4)C3)cnc2N1 [I-431]
66 | 100 to 200 µM | C=CC(=O)NCCCN1CCN(c2ccnc(N[C@@H]3CCCN(c4cccc(F)c4)C3)c2)CC1 [I-621]
67 | < 10 µM | OC[C@@H]1CC[C@H](Nc2cc(N3CCCCC3)ccn2)CN1c1cccc(F)c1 [I-1007]
68 | < 10 µM | Cc1c(F)ccc(F)c1-c1[nH]ncc1C(=O)N[C@@H](c1cccc(Cl)c1)[C@@H]1CCCS1(=O)=O [I-1002]
69 | < 10 µM | C[C@H]1[C@@H](O)CCCN1c1ccnc(N2CC[C@@H]3[C@H]2CCCN3c2cccc(F)c2)c1 [I-833]
70 | 10 to 100 µM | C=CC(=O)N1C[C@H](c2ccc(Br)cc2)[C@@H]1C(=O)N1CCN(c2ccnc(N[C@@H]3CCCN(c4cccc(F)c4)C3)c2)CC1 [I-641]
71 | < 10 µM | OCCOCCOCCOCCOCCC1CCCCN1c1ccnc(N2CC[C@@H]3[C@H]2CCCN3c2cccc(F)c2)c1 (some centres unmarked) [I-971]
72 | 10 to 100 µM | COCCN1CCN(c2ccnc(N[C@@H]3CCCN(c4cccc(F)c4)C3)n2)CC1 [I-320]
73 | < 10 µM | c1ccc2c(N3CCC[C@@H](Nc4cncc(N5CCOCC5)c4)C3)cncc2c1 [I-365]
74 | < 10 µM | NC(=O)CCc1cc(N2CCC[C@H]3[C@@H]2CCN3c2cc(N3CCCCC3)ccn2)ccc1F [I-874]
75 | 10 to 100 µM | Cc1c(N2CCOCC2)ccnc1N[C@@H]1CCCN(c2cccc(F)c2)C1 [I-516]
76 | < 10 µM | Cc1c(F)ccc(F)c1-c1[nH]ncc1C(=O)N[C@@H](CC(=O)N1CCN(C(=O)OCc2ccccc2)CC1)c1cccc(Cl)c1 [I-884]
77 | 10 to 100 µM | NC(=O)C[C@H](NC(=O)c1[nH]ccc1-c1ccccc1F)c1cccc(Cl)c1 [I-114]
78 | < 10 µM | Nc1ccc(F)cc1N1CCC[C@@H]2[C@H]1CCN2c1cc(N2CCCCC2)ccn1 [I-811]
79 | < 10 µM | CN(c1cccc(F)c1)[C@@H]1CCN(c2cc(N3CCCCC3)ccn2)C1 [I-673]
80 | < 10 µM | NCCCCCCCCCCCC1CCN(c2ccnc(N3CC[C@@H]4[C@H]3CCCN4c3cccc(F)c3)c2)CC1 [I-721]

Reference: patent US20260373266A1, “PROTEIN DEGRADERS AND USES THEREOF” (KYMERA THERAPEUTICS, INC., priority 2022, published 2026)
